We go through 13 molecules from paper PMC10102027, “Helquat dyes targeting G-quadruplexes as a new class of anti-HIV-1 inhibitors” (Scientific Reports, 2023).

Assay type in all cases: cell-based
One series deals with HIV-1 (NL4-3 strain). Nature of the series: CPE-based antiviral assay in HIV-1-infected MT-4 cells (XTT). Particulars: Human immunodeficiency virus 1, NL43, MT4, 120 h, cytopathic effect-based assay, MT-4 cells infected by HIV-1 (NL4-3 strain), 5 days post-infection. The text has this:
(§1) Based on a facile [2 + 2 + 2]‐cycloisomerization strategy, a robust three‐step synthetic entry into a novel family of helical extended diquats (helquats) was developed. After a straightforward Knoevenagel condensation of the respective helquat parent with different aldehydes (Fig. 2A), more than 500 helquat-based compounds were synthesized and screened for anti-HIV-1 activity in an assay based on the inhibition of the virus-induced cytopathic effect in MT-4 cells, evaluated after 5 days post-infection by an XTT assay. In parallel with the screening, the XTT assay was also used to determine the cytotoxicity of all compounds (Fig. 2B; for more information on the synthesis and characterization of the compounds, see the Supplementary Information). […]
(§2) XTT screening. MT-4 cells were seeded in 80 µl of the RPMI without Phenol Red in the amount of 3x10^4 cells per well of a 96-well plate. 10 µl of tested compounds (500 µM at 5% DMSO) or controls (5% DMSO at PBS, AZT 1mM, SQV 100 µM) were added to the cells; after one-hour incubation at 37 °C, HIV-1 (NL4-3 strain) was added with MOI = 0.05 and the infected cells were cultivated for five days.
The viability of the cells was measured by the XTT cell viability and proliferation assay. Briefly, 50 µl of the XTT solution with the addition of PMS (both VWR) was added to the cultivation media and incubated in a humidified incubator maintained at 37 °C with 5% CO2 for four hours, after which absorbance at 560 nm was measured on a VICTOR plate reader (PerkinElmer). […]
(§3) For compounds selected as hits in the initial screening, the effective concentration that inhibits 50% of the viral activity (EC50) and the cytotoxic concentration that reduces the MT -4 cell viability by 50% (CC50) were determined. Viral activity was evaluated after five days as an HIV-1-induced cytopathic effect quantified by the XTT assay. Selected hits were tested at two-fold serial dilutions from 50 µM concentration, and the drug concentrations required to reduce the viral cytopathic effect by 50% (EC 50) as well as the drug concentrations that reduced MT-4 cell viability by 50% (CC50) were calculated by nonlinear regression using GraphPad Prism v.8.0.0 (GraphPad Software).
Background: Tetrazolium dyes change colour on reduction, which living cells bring about.

A further series can be described thus: in vitro. Particulars: human.
Description: as §1, §2
The viability of the cells was measured by the XTT cell viability and proliferation assay. Briefly, 50 µl of the XTT solution with the addition of PMS (both VWR) was added to the cultivation media and incubated in a humidified incubator maintained at 37 °C with 5% CO2 for four hours, after which absorbance at 560 nm was measured on a VICTOR plate reader (PerkinElmer).
The cytotoxicity of the tested compounds was evaluated separately without virus addition and analysed by the same assay.
as §3

Series [1] has as its system HIV-1. Nature of the series: Adsorption assay (RT activity in supernatant). As to conditions: 10 µM, compound and virions added to MT-4 cells simultaneously, washed out after 2 h, RT activity 5 days after infection. How it is done:
(§4) To address virion binding and entry in a competitive setting, we performed an adsorption assay where test compounds and virions were added to MT-4 cells simultaneously and were washed out after 2 h of incubation. In parallel, we performed a replication assay where MT-4 cells were infected with HIV-1 and the tested compounds were added 1 h later. In both cases, the infection was evaluated by measuring reverse transcriptase activity in a cell-free supernatant 5 days after the infection (Fig. 3). As controls, PBS (phosphate-buffered saline) and inhibitors of different HIV-1 life-cycle steps were used: AMD (AMD3100), an inhibitor of gp120 attachment to CXCR4 receptors of the target cell, thus preventing HIV-1 adsorption and entry; AZT (azidothymidine), an inhibitor of reverse transcriptase; and RAL (raltegravir), an integrase inhibitor.
(§5) MT-4 cells were seeded in 80 µl of the Roswell Park Memorial Institute (RPMI) medium in the amount of 2 × 10^5 cells per well of a 96-well plate, and 10 µl of the virus stock were immediately added with the final multiplicity of infection (MOI) of 0.05. For a replication assay, the infected cells were incubated at 37 °C for 1 h before the addition of compounds being tested (10 µM final concentration) and subsequently cultivated at 37 °C for another 5 days. For an adsorption test, by contrast, the compounds (10 µM final concentration) were added simultaneously with the virus, and after 2 h of incubation, the cells were washed three times with PBS to remove the compounds and unbound virions; after the addition of 100 µl of the RPMI medium, the cells were cultivated at 37 °C for 5 days. Five days post-infection, aliquots of virus-containing cell-free supernatants were harvested and analysed by reverse transcriptase (RT) assay (described in the Supplementary Information). The experiments were performed as biological replicates where the sample size for each condition was n = 3.
(§6) RT assay. The reverse transcriptase (RT) activity in a cell-free supernatant was assessed by an α-32P RT assay. Briefly, the RT activity in the culture medium, which corresponded to the amount of HIV-1, was used to produce a DNA copy of an RNA template by extending a complementary oligo dT DNA primer with radiolabelled nucleotides. A reaction mixture containing 50 mM Tris-HCl pH 7.8, 75 mM KCl, 2 mM DTT, 5 mM MgCl2 and 0.5% NP-40 (all Sigma-Aldrich), 5 µg per ml of poly (rA)-poly (dT) (The Midlan Certified Reagent Company) with 1 µl 10-mCi/ml [α-32P]dTTP (American Radiolabeled Chemicals) per ml, and the tested sample was incubated at 37°C for two hours, after which 10 µl were spotted on DEAE blotting paper (PerkinElmer) and air-dried. After five washes with SSC buffer (0.15 M NaCl, 0.015 M sodium citrate) and three additional washes with 85% ethanol, the blotting paper was exposed to Phosphoscreen overnight, which was scanned on a Typhoon 9410 Phosphorimager instrument (GE Healthcare). The intensity of the dots was analysed by the ImageQuant software (GE Healthcare).

The test system of series [2] is HIV-1. Nature of the series: Replication assay (RT activity in supernatant). Particulars: 10 µM, compound added 1 h after infection of MT-4 cells, RT activity 5 days after infection. How it is done: as §4, §5, §6

SMILES strings stand for the structures. Bounds are passed on as bounds.

For the molecule `Cc1c(C)c2c(c3c1CC[n+]1ccc(/C=C/c4c5ccccc5c(C)c5ccccc45)cc1-3)-c1cc(/C=C/c3c4ccccc4c(C)c4ccccc34)cc[n+]1CC2` [Compound 1], in the series with HIV-1 (NL4-3 strain), the EC50 (commonly the concentration that produces a half-maximal response) was under 1 µM. For the same molecule, in the series “in vitro”, the CC50 (as a rule, the concentration at which the toxic effect on the cells reaches its halfway point) at 5 days is over 50 µM. In addition, the “effect on virus adsorption” value in the series with HIV-1 [1] is “inhibited neither adsorption nor replication, or their effect was weak”. Besides, the “effect on viral replication” value with HIV-1 [2] is “inhibited neither adsorption nor replication, or their effect was weak”.
In turn, `CN1/C(=C/c2cc3[n+](c4ccccc24)CCCc2ccc4c(c2-3)-c2cccc[n+]2CCC4)Sc2ccccc21` [Compound 2] showed an EC50 with HIV-1 (NL4-3 strain) of under 1 µM. For the same molecule, in “in vitro”, the CC50 at 5 days was 24.4 µM. Moreover, the “effect on virus adsorption” value with HIV-1 [1] is recorded as “inhibited adsorption”.
In turn, `C(=C\c1cccc2[n+]1CCc1ccc3c(c1-2)-c1cccc(/C=C/c2ccc(C(=C(c4ccccc4)c4ccccc4)c4ccccc4)cc2)[n+]1CC3)/c1ccc(C(=C(c2ccccc2)c2ccccc2)c2ccccc2)cc1` [Compound 4] had a 50% effective concentration (EC50) in the series on HIV-1 (NL4-3 strain) of 1.51 µM. Besides, in the series “in vitro”, the CC50 at 5 days is over 50 µM. The “effect on virus adsorption” value with HIV-1 [1] is “inhibited adsorption”.
`Cc1c(C)c2c(c3c1CC[n+]1ccc(/C=C/c4ccc5c(c4)CCO5)cc1-3)-c1cc(/C=C/c3ccc4c(c3)CCO4)cc[n+]1CC2` [Compound 5] gave an EC50 with HIV-1 (NL4-3 strain) of 1.67 µM. For the same molecule, in the series “in vitro”, the CC50 at 5 days is over 50 µM. The “effect on virus adsorption” value in the series with HIV-1 [1] is on record as “inhibited neither adsorption nor replication, or their effect was weak”. Moreover, the “effect on viral replication” value in the series on HIV-1 [2] is recorded as “inhibited neither adsorption nor replication, or their effect was weak”.
In turn, `C(=C\c1cc2ccccc2[nH]1)/c1cc[n+]2c(c1)-c1c(ccc3c1-c1cccc[n+]1CCC3)CCC2` [Compound 7] had an EC50 in the series on HIV-1 (NL4-3 strain) of 1.79 µM. Further, in the series “in vitro”, the CC50 at 5 days is over 50 µM. Besides, the “effect on virus adsorption” value in the series with HIV-1 [1] was “minimal or no effect on virus adsorption”. Further, in the series on HIV-1 [2], the “effect on viral replication” value is “significantly impairing viral replication”.
Turning to `Cc1c(C)c2c(c3c1CC[n+]1ccc(/C=C/c4ccc(N(C)C)cc4)cc1-3)-c1cc(/C=C/c3ccc(N(C)C)cc3)cc[n+]1CC2` [Compound 8], it took 1.79 µM to reach a half-maximal effect with HIV-1 (NL4-3 strain) (EC50). Besides, the half-maximal cytotoxic concentration (CC50) at 5 days in the series “in vitro” is over 50 µM. Besides, the “effect on virus adsorption” value in the series on HIV-1 [1] was “inhibited adsorption”.
`Cn1c(/C=C/c2cccc3[n+]2CCc2ccc4c(c2-3)-c2cccc(/C=C/c3cc5ccccc5n3C)[n+]2CC4)cc2ccccc21` [Compound 9]: the 50% effective concentration (EC50) in the series with HIV-1 (NL4-3 strain) is 1.96 µM. Besides, the CC50 at 5 days in the series “in vitro” was over 50 µM. Besides, in the series with HIV-1 [1], the “effect on virus adsorption” value was “inhibited adsorption”.
With `CN1/C(=C/c2cccc3[n+]2CCCc2ccc4c(c2-3)-c2cccc(/C=C3\Sc5ccccc5N3C)[n+]2CCC4)Sc2ccccc21` [Compound 10], the EC50 with HIV-1 (NL4-3 strain) stood at 2.18 µM. The molecule further yielded a CC50 at 5 days in the series “in vitro” of over 50 µM. The “effect on virus adsorption” value in the series on HIV-1 [1] was “inhibited neither adsorption nor replication, or their effect was weak”. For the same molecule, the “effect on viral replication” value in the series on HIV-1 [2] is reported as “inhibited neither adsorption nor replication, or their effect was weak”.
In the case of `Cc1c(C)c2c(c3c1CC[n+]1ccc(/C=C/c4ccc(-c5ccccc5)s4)cc1-3)-c1cc(/C=C/c3ccc(-c4ccccc4)s3)cc[n+]1CC2` [Compound 11], the EC50 with HIV-1 (NL4-3 strain) is 2.64 µM. Also, the 50% cytotoxic concentration (CC50) at 5 days in “in vitro” is over 50 µM. Moreover, the “effect on virus adsorption” value in the series with HIV-1 [1] was “inhibited adsorption”.
Take `COc1ccc(/C=C/c2cc[n+]3c(c2)-c2c(c(C)c(C)c4c2-c2cc(/C=C/c5ccc(OC)cc5OC)cc[n+]2CC4)CC3)c(OC)c1` [Compound 13]: the response in the series with HIV-1 (NL4-3 strain) was half-maximal at 2.69 µM (EC50). The molecule further yielded a CC50 at 5 days in the series “in vitro” of over 50 µM. Moreover, the “effect on virus adsorption” value in the series with HIV-1 [1] was “inhibited neither adsorption nor replication, or their effect was weak”. Besides, the “effect on viral replication” value with HIV-1 [2] is “inhibited neither adsorption nor replication, or their effect was weak”.
In the case of `Cc1c(C)c2c(c3c1CC[n+]1ccc(/C=C/c4c[nH]c5ccc(Br)cc45)cc1-3)-c1cc(/C=C/c3c[nH]c4ccc(Br)cc34)cc[n+]1CC2` [Compound 17], a half-maximal effect in the series with HIV-1 (NL4-3 strain) (EC50) was put at 3.01 µM. This molecule also returned a CC50 at 5 days in the series “in vitro” of over 50 µM. The “effect on virus adsorption” value in the series on HIV-1 [1] is on record as “inhibited neither adsorption nor replication, or their effect was weak”. Further, the “effect on viral replication” value in the series on HIV-1 [2] was “inhibited neither adsorption nor replication, or their effect was weak”.
`Cc1c(C)c2c(c3c1CC[n+]1ccc(/C=C/c4c[nH]c5ccccc45)cc1-3)-c1cc(/C=C/c3c[nH]c4ccccc34)cc[n+]1CC2` [Compound 18] came in with a 50% effective concentration (EC50) with HIV-1 (NL4-3 strain) of 3.18 µM. For the same molecule, the CC50 at 5 days in the series “in vitro” is over 50 µM. Besides, the “effect on virus adsorption” value in the series on HIV-1 [1] is listed as “inhibited neither adsorption nor replication, or their effect was weak”. Further, the “effect on viral replication” value with HIV-1 [2] was “inhibited neither adsorption nor replication, or their effect was weak”.
On to `COc1ccc(/C=C/c2cc[n+]3c(c2)-c2c(c(C)c(C)c4c2-c2cc(/C=C/c5ccc(OC)c6ccccc56)cc[n+]2CC4)CC3)c2ccccc12` [Compound 19], for which the EC50 in the series with HIV-1 (NL4-3 strain) came out at 3.39 µM. This molecule also gave a CC50 at 5 days in “in vitro” of over 50 µM. Further, the “effect on virus adsorption” value with HIV-1 [1] is on record as “inhibited neither adsorption nor replication, or their effect was weak”. Further, the “effect on viral replication” value with HIV-1 [2] was “inhibited neither adsorption nor replication, or their effect was weak”.
